Data taken from US4544662A, “1'-Substituted-spiro[oxazolidine-5-3'-indoline]-2,2', 4-trione derivatives” (Imperial Chemical Industries, priority 1982, dated 1985).

Target: T1, aldose reductase (Bos taurus, UniProt P16116)
T1 construct: purified aldose reductase is isolated in known manner from bovine lenses; from tissue; host or cells: bovine lens
Assay: in vitro inhibition of purified aldose reductase isolated from bovine lenses (spectrophotometric)
Format: biochemical
Conditions: purified bovine lens aldose reductase; reduction of glucose to sorbitol; read-out: IC50 (concentration necessary to produce 50% inhibition of enzymic activity)
Description: Thus, purified aldose reductase is isolated in known manner from bovine lenses. The percentage inhibition of this enzyme's ability in vitro to reduce aldoses to polyhydric alcohols, and particularly to reduce glucose to sorbitol, caused by a test compound is then determined using standard spectrophotometric methods.

| Structure (SMILES) | IC50 [nM] |
| --- | --- |
| Cc1cc(Cl)cc2c1N(Cc1ccc(Cl)c(Cl)c1)C(=O)C21OC(=O)NC1=O (centres unmarked) [Example 7, 1'-(3,4-dichlorobenzyl)-5'-chloro-7'-methylspiro[oxazolidine-5,3'-indoline]-2,2',4-trione] | 25 |
| Cc1cccc2c1N(Cc1ccc(Br)cc1F)C(=O)C21OC(=O)NC1=O (centres unmarked) [Example 6, 1'-(4-bromo-2-fluorobenzyl)-7'-methylspiro[oxazolidine-5,3'-indoline]-2,2',4-trione] | 20 |
